Experimental data: patent US7572818B2, “2-pyridylethylbenzamide derivative” (Bayer Cropscience S.A., priority 2002, dated 2009)

Test system: Alternaria brassicae
Experiment: In vivo test of activity on Alternaria brassicae (crucifer black spot) on radish
Settings: 250 g/ha, preventive spray 24 h before inoculation
Experimental: In Vivo Test of Activity on Alternaria brassicae (Crucifer Black Spot)
An aqueous solution of the active material to be tested is prepared at a concentration of 2 g/l by grinding in solution 1 or solution 2:
• Water • Tween 80 diluted to 10% in water: 5 μl/mg of active material • Clay in a sufficient amount for active material+clay to equal 100 mg; Solution 2
Concentrated solution containing surfactants and adjuvants conventionally used: 200 μl/mg of active material.
The aqueous solution is diluted with water so as to obtain the desired concentration.
Radishes of the Pernot variety are sown in a 50/50 pozzolan/peat substrate and maintained at 18-22° C. The treatment is carried out by spraying the aqueous suspension. The untreated control plants are sprayed with water. 24 hours after treatment, the plants are inoculated by spraying a solution of Alternaria brassicae spores (40 000 spores/ml) originating from a 12-day culture.
The radish plants are then maintained at 18-20° C. in a humid atmosphere. The effectiveness of the products is evaluated relative to the control plants after seven to eight days of incubation.
The effectiveness of the molecules is estimated, at 500 g/ha, 250 g/ha or 330 ppm, by the percentage of control relative to untreated plants. Under these conditions, good effectiveness is defined as more than 80% effectiveness. Average effectiveness is defined as an effectiveness between 50 and 80%. Poor effectiveness is defined as an effectiveness between 10 and 50% and zero effectiveness is defined as less than 10% effectiveness.

SMILES	effectiveness (percentage of control relative to untreated plants)
O=C(NCCc1ncc(C(F)(F)F)cc1Cl)c1ccccc1[N+](=O)[O-] [Compound A-29]	good to average
O=C(NCCc1ncc(C(F)(F)F)cc1Cl)c1cccc(C(F)(F)F)c1 [Compound A-28]	good to average
O=C(NCCc1ncc(C(F)(F)F)cc1Cl)c1cc(F)c(F)cc1F [Compound A-41]	good to average

Same assay, conditions: 330 ppm, preventive spray 24 h before inoculation

SMILES	effectiveness (percentage of control relative to untreated plants)
CSc1cc(C(F)(F)F)ccc1C(=O)NCCc1ncc(C(F)(F)F)cc1Cl [Compound A-143]	good to average
Cc1cccc(C(=O)NCCc2ncc(C(F)(F)F)cc2Cl)c1C [Compound A-60]	good to average
O=C(NCCc1ncc(C(F)(F)F)cc1Cl)c1ccc(I)c(Br)c1 [Compound A-158]	good to average
CCOc1ccccc1C(=O)NCCc1ncc(C(F)(F)F)cc1Cl [Compound A-86]	good to average
Cc1cccc(C(=O)NCCc2ncc(C(F)(F)F)cc2Cl)c1I [Compound A-179]	good to average
CSc1c(C(=O)NCCc2ncc(C(F)(F)F)cc2Cl)ccc(Cl)c1Cl [Compound A-144]	good to average
CS(=O)(=O)c1cc(C(F)(F)F)ccc1C(=O)NCCc1ncc(C(F)(F)F)cc1Cl [Compound A-139]	good to average
Cc1cc(C(=O)NCCc2ncc(C(F)(F)F)cc2Cl)c(Cl)c(C)c1F [Compound A-123]	good to average
O=C(NCCc1ncc(C(F)(F)F)cc1Cl)c1ccc(Cl)cc1I [Compound A-176]	good to average
CS(=O)(=O)c1ccc(C(=O)NCCc2ncc(C(F)(F)F)cc2Cl)c(C(F)(F)F)c1 [Compound A-138]	good to average
O=C(NCCc1ncc(C(F)(F)F)cc1Cl)c1cc(I)c(O)c(I)c1 [Compound A-169]	good to average
Cc1c(C(=O)NCCc2ncc(C(F)(F)F)cc2Cl)ccc(Cl)c1F [Compound A-162]	good to average
CCc1cc(Br)ccc1C(=O)NCCc1ncc(C(F)(F)F)cc1Cl [Compound A-152]	good to average
O=C(NCCc1ncc(C(F)(F)F)cc1Cl)c1c(F)cccc1Br [Compound A-112]	good to average
COc1cc(I)c(C(=O)NCCc2ncc(C(F)(F)F)cc2Cl)cc1OC [Compound A-189]	good to average
COc1cc(OC)c(C(=O)NCCc2ncc(C(F)(F)F)cc2Cl)cc1OC [Compound A-84]	good to average
CS(=O)(=O)c1ccc(C(=O)NCCc2ncc(C(F)(F)F)cc2Cl)c(Cl)c1O [Compound A-136]	good to average
CSc1cc(Cl)ccc1C(=O)NCCc1ncc(C(F)(F)F)cc1Cl [Compound A-127]	good to average
CSc1c(C(=O)NCCc2ncc(C(F)(F)F)cc2Cl)ccc(Cl)c1Br [Compound A-146]	good to average

SMILES	effectiveness (percentage of control relative to untreated plants)
COc1ccc(OC)c(C(=O)NCCc2ncc(C(F)(F)F)cc2Cl)c1 [Compound A-85]	good to average
Cc1ccc(C)c(C(=O)NCCc2ncc(C(F)(F)F)cc2Cl)c1 [Compound A-62]	good to average
COc1ccc(C(C)(C)C)cc1C(=O)NCCc1ncc(C(F)(F)F)cc1Cl [Compound A-92]	good to average
O=C(NCCc1ncc(C(F)(F)F)cc1Cl)c1ccc(Cl)c(Br)c1 [Compound A-141]	good to average
O=C(NCCc1ncc(C(F)(F)F)cc1Cl)c1ccc(C(F)(F)F)cc1C(F)(F)F [Compound A-74]	good to average
O=C(NCCc1ncc(C(F)(F)F)cc1Cl)c1cc(C(F)(F)F)ccc1C(F)(F)F [Compound A-72]	good to average
CSc1ccc(Cl)c(C(=O)NCCc2ncc(C(F)(F)F)cc2Cl)c1 [Compound A-99]	good to average
Cc1ccc(F)cc1C(=O)NCCc1ncc(C(F)(F)F)cc1Cl [Compound A-186]	good to average
Cc1ccc([N+](=O)[O-])cc1C(=O)NCCc1ncc(C(F)(F)F)cc1Cl [Compound A-79]	good to average
O=C(NCCc1ncc(C(F)(F)F)cc1Cl)c1cc(Cl)ccc1Br [Compound A-100]	good to average
O=C(NCCc1ncc(C(F)(F)F)cc1Cl)c1cc(Cl)ccc1I [Compound A-188]	good to average
O=C(NCCc1ncc(C(F)(F)F)cc1Cl)c1c(C(F)(F)F)ccc(Cl)c1F [Compound A-75]	good to average
Cc1cc(C(=O)NCCc2ncc(C(F)(F)F)cc2Cl)c([N+](=O)[O-])cc1C [Compound A-156]	good to average
Cc1cccc(C(=O)NCCc2ncc(C(F)(F)F)cc2Cl)c1Br [Compound A-180]	good to average
O=C(NCCc1ncc(C(F)(F)F)cc1Cl)c1cccc(Cl)c1Cl [Compound A-48]	good to average
O=C(NCCc1ncc(C(F)(F)F)cc1Cl)c1cccc(F)c1Br [Compound A-122]	good to average
Cc1c(C(=O)NCCc2ncc(C(F)(F)F)cc2Cl)cccc1[N+](=O)[O-] [Compound A-77]	good to average
O=C(NCCc1ncc(C(F)(F)F)cc1Cl)c1cc(F)c(F)cc1Cl [Compound A-107]	good to average
Cc1ccc(Cl)c(C(=O)NCCc2ncc(C(F)(F)F)cc2Cl)c1F [Compound A-182]	good to average

SMILES	effectiveness (percentage of control relative to untreated plants)
Cc1ccc(Cl)c(C(=O)NCCc2ncc(C(F)(F)F)cc2Cl)c1 [Compound A-184]	good to average
CSc1ccc(C(=O)NCCc2ncc(C(F)(F)F)cc2Cl)c(C)c1 [Compound A-142]	good to average
COc1cc([N+](=O)[O-])ccc1C(=O)NCCc1ncc(C(F)(F)F)cc1Cl [Compound A-171]	good to average
CC(C)c1c(Br)cccc1C(=O)NCCc1ncc(C(F)(F)F)cc1Cl [Compound A-151]	good to average
Cc1cc(Br)ccc1C(=O)NCCc1ncc(C(F)(F)F)cc1Cl [Compound A-80]	good to average
Cc1cccc(C(=O)NCCc2ncc(C(F)(F)F)cc2Cl)c1Cl [Compound A-178]	good to average
Cc1ccc(I)c(C(=O)NCCc2ncc(C(F)(F)F)cc2Cl)c1 [Compound A-177]	good to average
O=C(NCCc1ncc(C(F)(F)F)cc1Cl)c1ccccc1O [Compound A-52]	good to average
O=C(NCCc1ncc(C(F)(F)F)cc1Cl)c1cc(I)ccc1Cl [Compound A-185]	good to average
Cc1ccc(F)c(C(=O)NCCc2ncc(C(F)(F)F)cc2Cl)c1Cl [Compound A-124]	good to average
CS(=O)(=O)c1ccc(C(=O)NCCc2ncc(C(F)(F)F)cc2Cl)c(Br)c1 [Compound A-137]	good to average
O=C(NCCc1ncc(C(F)(F)F)cc1Cl)c1c(F)ccc(F)c1Cl [Compound A-113]	good to average
CSc1c(F)ccc(C(=O)NCCc2ncc(C(F)(F)F)cc2Cl)c1F [Compound A-165]	good to average
COc1cc(Cl)c(C(=O)NCCc2ncc(C(F)(F)F)cc2Cl)cc1OC [Compound A-181]	good to average
O=C(NCCc1ncc(C(F)(F)F)cc1Cl)c1cc(Cl)ccc1Cl [Compound A-49]	good to average
CCCOc1ccccc1C(=O)NCCc1ncc(C(F)(F)F)cc1Cl [Compound A-91]	good to average
CSc1ccc(C(=O)NCCc2ncc(C(F)(F)F)cc2Cl)c(Br)c1 [Compound A-150]	good to average
Cc1cccc(C(=O)NCCc2ncc(C(F)(F)F)cc2Cl)c1N [Compound A-194]	good to average
